In ChEMBL document CHEMBL1201861, “Genomics of Drug Sensitity in Cancer screening data, Wellcome Trust Sanger Institute”:
pIC50: −log10 of the molar value.

Experiments:
Test in all cases: cells
[1] = system: D-263MG; assay type: functional, cell-based, Homo sapiens; conditions: Homo sapiens, D-263MG
Description: SANGER: Inhibition of human D-263MG cell growth in a cell viability assay.

[2] = system: KOSC-2; assay type: functional, cell-based, Homo sapiens; conditions: Homo sapiens, KOSC-2;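 also: growth inhibition of KOSC-2 cells, read out by a cell viability assay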
[3] = system: Daoy; assay type: functional, cell-based, Homo sapiens; conditions: Homo sapiens, Daoy;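 also: daoy cell growth inhibition, read out as cell viability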
Description: SANGER: Inhibition of human Daoy cell growth in a cell viability assay.

[4] = system: SW1990; assay type: functional, cell-based, Homo sapiens; conditions: Homo sapiens, SW1990;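 also: cell growth inhibition determined with a viability assay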
Description: SANGER: Inhibition of human SW1990 cell growth in a cell viability assay.

[5] = system: UACC-62; assay type: functional, cell-based, Homo sapiens; conditions: Homo sapiens, UACC-62;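 also: growth inhibition of human UACC-62 cells, read out by a cell viability assay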
Description: SANGER: Inhibition of human UACC-62 cell growth in a cell viability assay.

[6] = system: A 172; assay type: functional, cell-based, Homo sapiens; conditions: Homo sapiens, A 172;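 also: growth inhibition of A172 cells, measured with a cell viability readout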
[7] = system: EW-16; assay type: functional, cell-based, Homo sapiens; conditions: Homo sapiens, EW-16;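 also: growth inhibition of human EW-16 cells, read out as cell viability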
Description: SANGER: Inhibition of human EW-16 cell growth in a cell viability assay.

[8] = system: Panc1005; assay type: functional, cell-based, Homo sapiens; conditions: Homo sapiens, Panc1005;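 also: growth inhibition of human PANC-10-05 cells, measured by a cell viability assay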
Description: SANGER: Inhibition of human PANC-10-05 cell growth in a cell viability assay.

[9] = system: RH-1; assay type: functional, cell-based, Homo sapiens; conditions: Homo sapiens, RH-1;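 also: growth inhibition of human RH-1 cells, read out with a cell viability assay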
[10] = system: C32; assay type: functional, cell-based, Homo sapiens; conditions: Homo sapiens, C32;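 also: cell viability assay, with IC50 reflecting inhibition of C32 cell growth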
Description: SANGER: Inhibition of human C32 cell growth in a cell viability assay.

[11] = system: IST-MEL1; assay type: functional, cell-based, Homo sapiens; conditions: Homo sapiens, IST-MEL1;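 also: growth inhibition of the cell line, read out with a cell viability assay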
Description: SANGER: Inhibition of human IST-MEL1 cell growth in a cell viability assay.

[12] = system: NCI-H727; assay type: functional, cell-based, Homo sapiens; conditions: Homo sapiens, NCI-H727;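 also: growth inhibition of human NCI-H727 cells, read out with a cell viability assay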
Description: SANGER: Inhibition of human NCI-H727 cell growth in a cell viability assay.

[13] = system: NCI-H1092; assay type: functional, cell-based; conditions: Homo sapiens;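 also: cell growth inhibition measured with a cell viability assay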
Description: SANGER: Inhibition of human NCI-H1092 cell growth in a cell viability assay.

[14] = system: JVM-2; assay type: functional, cell-based; conditions: Homo sapiens;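 also: growth inhibition of JVM-2 cells determined by a cell viability assay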
Description: SANGER: Inhibition of human JVM-2 cell growth in a cell viability assay.

[15] = system: S-117; assay type: functional, cell-based, Homo sapiens; conditions: Homo sapiens, S-117
Description: SANGER: Inhibition of human S-117 cell growth in a cell viability assay.

[16] = system: DU-4475; assay type: functional, cell-based; conditions: Homo sapiens
Description: SANGER: Inhibition of human DU-4475 cell growth in a cell viability assay.

[17] = system: 769-P; assay type: functional, cell-based, Homo sapiens; conditions: Homo sapiens, 769-P
Description: SANGER: Inhibition of human 769-P cell growth in a cell viability assay.

[18] = system: LAN-6; assay type: functional, cell-based, Homo sapiens; conditions: Homo sapiens, LAN-6;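 also: growth inhibition of LAN-6 cells, determined with a cell viability assay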
Description: SANGER: Inhibition of human LAN-6 cell growth in a cell viability assay.

[19] = system: D-392MG; assay type: functional, cell-based, Homo sapiens; conditions: Homo sapiens, D-392MG
[20] = system: SK-MEL-24; assay type: functional, cell-based; conditions: Homo sapiens;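 also: growth inhibition read out by a cell viability assay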
Description: SANGER: Inhibition of human SK-MEL-24 cell growth in a cell viability assay.

[21] = system: LN-405; assay type: functional, cell-based, Homo sapiens; conditions: Homo sapiens, LN-405
Description: SANGER: Inhibition of human LN-405 cell growth in a cell viability assay.

[22] = system: HuP-T3; assay type: functional, cell-based, Homo sapiens; conditions: Homo sapiens, HuP-T3;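 also: HuP-T3 cell growth inhibition, read out with a cell viability assay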
Description: SANGER: Inhibition of human HuP-T3 cell growth in a cell viability assay.

[23] = system: HL-60; assay type: functional, cell-based; conditions: Homo sapiens;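 also: growth inhibition of human HL-60 cells, read out with a cell viability assay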
Description: SANGER: Inhibition of human HL-60 cell growth in a cell viability assay.

[24] = system: SK-OV-3; assay type: functional, cell-based, Homo sapiens; conditions: Homo sapiens, SK-OV-3;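 also: growth inhibition of SK-OV-3 human cells, read out with a cell viability assay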
Description: SANGER: Inhibition of human SK-OV-3 cell growth in a cell viability assay.

[25] = system: ABC-1; assay type: functional, cell-based, Homo sapiens; conditions: Homo sapiens, ABC-1;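 also: growth inhibition of human ABC-1 cells, read out by a cell viability assay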
Description: SANGER: Inhibition of human ABC-1 cell growth in a cell viability assay.

[26] = system: ONS-76; assay type: functional, cell-based, Homo sapiens; conditions: Homo sapiens, ONS-76;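 also: growth inhibition of human ONS-76 cells, read out with a cell viability assay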
[27] = system: BCPAP; assay type: functional, cell-based, Homo sapiens; conditions: Homo sapiens, BCPAP;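 also: growth inhibition of BCPAP cells, read out in a cell viability assay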
Description: SANGER: Inhibition of human BCPAP cell growth in a cell viability assay.

[28] = system: T98G; assay type: functional, cell-based, Homo sapiens; conditions: Homo sapiens, T98G;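 also: growth inhibition of T98G cells, read out by a cell viability assay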
Description: SANGER: Inhibition of human T98G cell growth in a cell viability assay.

[29] = system: SNU1; assay type: functional, cell-based; conditions: Homo sapiens;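 also: growth inhibition of human NCI-SNU-1 cells, measured with a cell viability assay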
Description: SANGER: Inhibition of human NCI-SNU-1 cell growth in a cell viability assay.

[30] = system: HCC1937; assay type: functional, cell-based, Homo sapiens; conditions: Homo sapiens, HCC1937;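 also: growth inhibition measured with a cell viability read-out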
Description: SANGER: Inhibition of human HCC1937 cell growth in a cell viability assay.

[31] = system: HT-144; assay type: functional, cell-based, Homo sapiens; conditions: Homo sapiens, HT-144
Description: SANGER: Inhibition of human HT-144 cell growth in a cell viability assay.

[32] = system: 639-V; assay type: functional, cell-based, Homo sapiens; conditions: Homo sapiens, 639-V;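 also: growth inhibition of 639-V cells, read out with a cell viability assay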
Description: SANGER: Inhibition of human 639-V cell growth in a cell viability assay.

[33] = system: OE33; assay type: functional, cell-based, Homo sapiens; conditions: Homo sapiens, OE33;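 also: growth inhibition of human OE33 cells, measured by a cell viability assay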
Description: SANGER: Inhibition of human OE33 cell growth in a cell viability assay.

[34] = system: CAS-1; assay type: functional, cell-based, Homo sapiens; conditions: Homo sapiens, CAS-1;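 also: growth inhibition of CAS-1 cells, measured with a cell viability assay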
[35] = system: SCC-25; assay type: functional, cell-based, Homo sapiens; conditions: Homo sapiens, SCC-25;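 also: growth inhibition of SCC-25 cells, measured with a cell viability assay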
[36] = system: UACC-257; assay type: functional, cell-based, Homo sapiens; conditions: Homo sapiens, UACC-257
Description: SANGER: Inhibition of human UACC-257 cell growth in a cell viability assay.

[37] = system: COLO-829; assay type: functional, cell-based, Homo sapiens; conditions: Homo sapiens, COLO-829
Description: SANGER: Inhibition of human COLO-829 cell growth in a cell viability assay.

[38] = system: KYSE-520 cell line; assay type: functional, cell-based, Homo sapiens; conditions: Homo sapiens, KYSE-520;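 also: growth inhibition of human KYSE-520 cells, read out with a viability assay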
Description: SANGER: Inhibition of human KYSE-520 cell growth in a cell viability assay.

[39] = system: BB65-RCC; assay type: functional, cell-based, Homo sapiens; conditions: Homo sapiens, BB65-RCC;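 also: growth inhibition of the cell line, measured with a cell viability assay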
Description: SANGER: Inhibition of human BB65-RCC cell growth in a cell viability assay.

[40] = system: SNB-75; assay type: functional, cell-based, Homo sapiens; conditions: Homo sapiens, SNB-75;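 also: cell viability assay measuring growth inhibition of human SNB-75 cells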
Description: SANGER: Inhibition of human SNB75 cell growth in a cell viability assay.

[41] = system: J-RT3-T3-5; assay type: functional, cell-based; conditions: Homo sapiens;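 also: cell viability assay measuring growth inhibition of human J-RT3-T3-5 cells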
Description: SANGER: Inhibition of human J-RT3-T3-5 cell growth in a cell viability assay.

[42] = system: RPMI-8866; assay type: functional, cell-based; conditions: Homo sapiens
Description: SANGER: Inhibition of human RPMI-8866 cell growth in a cell viability assay.

[43] = system: HEL; assay type: functional, cell-based, Homo sapiens; conditions: Homo sapiens, HEL;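 also: growth inhibition of HEL cells, read out with a cell viability assay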
Description: SANGER: Inhibition of human HEL cell growth in a cell viability assay.

[44] = system: CHL-1; assay type: functional, cell-based, Homo sapiens; conditions: Homo sapiens, CHL-1;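 also: cell growth inhibition, read out with a cell viability assay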
Description: SANGER: Inhibition of human CHL-1 cell growth in a cell viability assay.

[45] = system: NCI-H1755; assay type: functional, cell-based, Homo sapiens; conditions: Homo sapiens, NCI-H1755;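 also: cell viability readout used to measure growth inhibition of NCI-H1755 cells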
Description: SANGER: Inhibition of human NCI-H1755 cell growth in a cell viability assay.

[46] = system: MHH-ES-1; assay type: functional, cell-based, Homo sapiens; conditions: Homo sapiens, MHH-ES-1;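 also: cell growth inhibition measured by a cell viability assay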
Description: SANGER: Inhibition of human MHH-ES-1 cell growth in a cell viability assay.

[47] = system: A704; assay type: functional, cell-based, Homo sapiens; conditions: Homo sapiens, A704;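 also: growth inhibition of human A704 cells, read out with a cell viability assay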
Description: SANGER: Inhibition of human A704 cell growth in a cell viability assay.

[48] = system: RO82-W-1; assay type: functional, cell-based, Homo sapiens; conditions: Homo sapiens, RO82-W-1;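 also: growth inhibition of human RO82-W-1 cells, measured with a cell viability assay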
Description: SANGER: Inhibition of human RO82-W-1 cell growth in a cell viability assay.

[49] = system: ES1; assay type: functional, cell-based, Homo sapiens; conditions: Homo sapiens, ES1;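 also: growth inhibition of ES1 cells, read out with a cell viability assay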
Description: SANGER: Inhibition of human ES1 cell growth in a cell viability assay.

[50] = system: NCI-H1650; assay type: functional, cell-based, Homo sapiens; conditions: Homo sapiens, NCI-H1650;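 also: growth inhibition of human NCI-H1650 cells measured by a cell viability assay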
Description: SANGER: Inhibition of human NCI-H1650 cell growth in a cell viability assay.

[51] = system: DSH1; assay type: functional, cell-based, Homo sapiens; conditions: Homo sapiens, DSH1;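 also: growth inhibition of human DSH1 cells, measured with a cell viability readout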
Description: SANGER: Inhibition of human DSH1 cell growth in a cell viability assay.

Measured: pIC50

CC(=O)O[C@@H]1[C@@H](OC(C)=O)[C@@H](O)[C@H](Oc2c(-c3ccc(O)cc3)oc3cc(O)cc(O)c3c2=O)O[C@H]1C
5.32: [6]
5.12: [16]
< 5.00: all other assays above

O=C(NOCC1CC1)c1ccc(F)c(F)c1Nc1ccc(I)cc1Cl [CI-1040]
5.36: [18]
5.02: [32]
6.48: [20]
6.39: [23]
5.11: [35]
5.03: [30]
6.12: [29]
5.27: [27]
5.79: [37]
5.19: [6]
6.02: [36]
6.19: [31]
5.25: [22]
7.12: [16]
5.53: [12]
5.91: [26]
6.72: [10]
5.20: [8]
5.21: [42]
5.55: [44]
5.10: [11]
5.23: [1]
5.62: [39]
5.09: [7]
5.05: [28]
< 5.00: all other assays above

CN(C)C/C=C/C(=O)Nc1cc2c(Nc3ccc(F)c(Cl)c3)ncnc2cc1O[C@H]1CCOC1 [AFATINIB]
7.74: [44]
6.46: [39]
7.48: [51]
< 6.30: all other assays above
